In patent US7635716B2, “Substituted cyclopentanes or cyclopentanones as therapeutic agents” (Allergan, Inc., priority 2005, dated 2009):

What was measured:
hEP2 [1] = molecular target: T1, hEP2 (Homo sapiens, UniProt P43116); assay: hEP2 cAMP functional assay; format: cell-based; conditions: Table 1, second part
hEP2 [2] = molecular target: T1, hEP2; assay: Competition binding, [3H]PGE2, HEK 293 cells stably expressing human EP2 receptors; design: expressed in transfected cells; host or cells: HEK 293 cells (membranes or whole cells); conditions: Table 1, second part; read-out: hEP2 Ki
Description: Competition binding experiments were performed in a medium containing Hank's balanced salt solution, Hepes 20 mM, pH 7.3, membranes (˜60 μg protein) or 2×10^5 cells from HEK 293 cells stably expressing human EP2 receptors, [^3H]PGE2 (10 nM) and various concentrations of test compounds in a total volume of 300 μL. Reaction mixtures were incubated at 23° C. for 60 min, and were filtered over Whatman GF/B filters under vacuum. Filters were washed three times with 5 ml ice-cold buffer containing 50 mM Tris/HCl (pH 7.3). Non-specific binding was estimated in the presence of excess unlabeled PGE2 (10 μM). Binding data fitted to the binding model for a single class of binding sites, using nonlinear regression analysis. IC50 values thus obtained were converted to Ki using the equation of Ki=(IC50/(1+[L]/KD) where [L] represents PGE2 concentration (10 nM) and KD the dissociation constant for [^3H]PGE2 at human EP2 receptors (40 nM).
(§1) HEK-293 cells stably expressing the human or feline FP receptor, or EP1, EP2, or EP4 receptors were washed with TME buffer, scraped from the bottom of the flasks, and homogenized for 30 sec using a Brinkman PT 10/35 polytron. TME buffer was added to achieve a final 40 ml volume in the centrifuge tubes (the composition of TME is 100 mM TRIS base, 20 mM MgCl2, […]; 10N HCl is added to achieve a pH of 7.4).
(§2) The cell homogenate was centrifuged at 19000 r.p.m. for 20 min at 4° C. using a Beckman Ti-60 rotor. The resultant pellet was resuspended in TME buffer to give a final 1 mg/ml protein concentration, as determined by Biorad assay. Radioligand binding competition assays vs. [^3H—]17 phenyl PGF2. (5 nM) were performed in a 100 μl volume for 60 min. Binding reactions were started by adding plasma membrane fraction. The reaction was terminated by the addition of 4 ml ice-cold TRIS-HCl buffer and rapid filtration through glass fiber GF/B filters using a Brandel cell harvester. The filters were washed 3 times with ice-cold buffer and oven dried for one hour.
(§3) [^3H—] PGE2 (specific activity 180 Ci mmol) was used as the radioligand for EP receptors. [^3H] 17-phenyl PGF2α was employed for FP receptor binding studies. Binding studies employing EP1, EP2, EP4 and FP receptors were performed in duplicate in at least three separate experiments. A 200 μl assay volume was used. Incubations were for 60 min at 25° C. and were terminated by the addition of 4 ml of ice-cold 50 mM TRIS-HCl, followed by rapid filtration through Whatman GF/B filters and three additional 4 ml washes in a cell harvester (Brandel). Competition studies were performed using a final concentration of 5 nM [^3H]-PGE2, or 5 nM [^3H] 17-phenyl PGF2α and non-specific binding determined with 10^−5M of unlabeled PGE2, or 17-phenyl PGF2α, according to receptor subtype studied.

hEP2/Gqs5 = molecular target: T2, hEP2/Gqs5 (Homo sapiens, UniProt P43116); assay: FLIPR calcium signal, HEK-293(EBNA) cells; format: cell-based; conditions: Table 1, second part; read-out: hEP2 flipr EC50
T2 construct: expressed in transfected cells; host or cells: HEK-293(EBNA) cells
T2 sequence (P43116 whole entry): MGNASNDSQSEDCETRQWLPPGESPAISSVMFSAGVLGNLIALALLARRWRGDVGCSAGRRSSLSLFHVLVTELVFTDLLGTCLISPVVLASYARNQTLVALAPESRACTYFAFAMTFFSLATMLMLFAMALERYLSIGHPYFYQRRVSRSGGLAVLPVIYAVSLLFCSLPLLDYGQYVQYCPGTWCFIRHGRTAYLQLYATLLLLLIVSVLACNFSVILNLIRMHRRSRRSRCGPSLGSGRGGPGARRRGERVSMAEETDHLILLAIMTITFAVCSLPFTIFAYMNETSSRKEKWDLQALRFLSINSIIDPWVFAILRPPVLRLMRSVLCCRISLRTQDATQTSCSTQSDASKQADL
Description: (§4) HEK-293(EBNA) cells, stably expressing one type or subtype of recombinant human prostaglandin receptors (prostaglandin receptors expressed: hDP/Gqs5; hEP1; hEP2/Gqs5; hEP3A/Gqi5; hEP4/Gqs5; hFP; hIP; hTP), were cultured in 100 mm culture dishes in high-glucose DMEM medium containing 10% fetal bovine serum, 2 mM 1-glutamine, 250 μg/ml geneticin (G418) and 200 μg/ml hygromycin B as selection markers, and 100 units/ml penicillin G, 100 μg/ml streptomycin and 0.25 μg/ml amphotericin B.
(§5) Cells were seeded at a density of 5×10^4 cells per well in Biocoat® Poly-D-lysine-coated black-wall, clear-bottom 96-well plates (Becton-Dickinson) and allowed to attach overnight in an incubator at 37° C. Cells were then washed two times with HBSS-HEPES buffer (Hanks Balanced Salt Solution without bicarbonate and phenol red, 20 mM HEPES, pH 7.4) using a Denley Cellwash plate washer (Labsystems). After 45 minutes of dye-loading in the dark, using the calcium-sensitive dye Fluo-4 AM at a final concentration of 2 μM, plates were washed four times with HBSS-HEPES buffer to remove excess dye leaving 100 μl in each well. Plates were re-equilibrated to 37° C. for a few minutes.
(§6) Cells were excited with an Argon laser at 488 nm, and emission was measured through a 510-570 nm bandwidth emission filter (FLIPR™, Molecular Devices, Sunnyvale, Calif.). Drug solution was added in a 50 μl volume to each well to give the desired final concentration. The peak increase in fluorescence intensity was recorded for each well. On each plate, four wells each served as negative (HBSS-HEPES buffer) and positive controls (standard agonists: BW245C (hDP); PGE2 (hEP1; hEP2/Gqs5; hEP3A/Gqi5; hEP4/Gqs5); PGF2. (hFP); carbacyclin (hIP); U-46619 (hTP), depending on receptor). The peak fluorescence change in each drug-containing well was then expressed relative to the controls.
(§7) Compounds were tested in a high-throughput (HTS) or concentration-response (CoRe) format. In the HTS format, forty-four compounds per plate were examined in duplicates at a concentration of 10^−5 M. To generate concentration-response curves, four compounds per plate were tested in duplicates in a concentration range between 10^−5 and 10^−11 M. The duplicate values were averaged. In either, HTS or CoRe format each compound was tested on at least 3 separate plates using cells from different passages to give an n≧3.

hIP = molecular target: T3, hIP (Homo sapiens, UniProt P43119); assay: FLIPR calcium signal, HEK-293(EBNA) cells; format: cell-based; conditions: Table 1, second part; quantity not given, values match functional data (EC50) of first part; read-out: Other Receptors hIP
T3 construct: expressed in transfected cells; host or cells: HEK-293(EBNA) cells
T3 sequence (P43119 whole entry): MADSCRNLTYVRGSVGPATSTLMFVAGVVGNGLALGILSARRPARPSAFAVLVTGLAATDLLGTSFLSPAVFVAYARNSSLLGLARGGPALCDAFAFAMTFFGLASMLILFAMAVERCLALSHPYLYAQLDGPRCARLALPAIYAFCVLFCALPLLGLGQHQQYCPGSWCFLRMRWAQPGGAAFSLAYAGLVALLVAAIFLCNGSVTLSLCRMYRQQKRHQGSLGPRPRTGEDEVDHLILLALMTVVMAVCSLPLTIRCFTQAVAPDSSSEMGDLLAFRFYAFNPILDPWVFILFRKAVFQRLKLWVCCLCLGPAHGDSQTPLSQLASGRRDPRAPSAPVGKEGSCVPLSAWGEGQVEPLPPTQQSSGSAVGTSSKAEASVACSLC
Description: as §4, §5, §6, §7

hEP4/Gqs5 = molecular target: T4, hEP4/Gqs5 (Homo sapiens, UniProt P35408); assay: FLIPR calcium signal, HEK-293(EBNA) cells; format: cell-based; conditions: Table 1, second part; read-out: hEP4 flipr EC50
T4 construct: expressed in transfected cells; host or cells: HEK-293(EBNA) cells
T4 sequence (P35408 whole entry): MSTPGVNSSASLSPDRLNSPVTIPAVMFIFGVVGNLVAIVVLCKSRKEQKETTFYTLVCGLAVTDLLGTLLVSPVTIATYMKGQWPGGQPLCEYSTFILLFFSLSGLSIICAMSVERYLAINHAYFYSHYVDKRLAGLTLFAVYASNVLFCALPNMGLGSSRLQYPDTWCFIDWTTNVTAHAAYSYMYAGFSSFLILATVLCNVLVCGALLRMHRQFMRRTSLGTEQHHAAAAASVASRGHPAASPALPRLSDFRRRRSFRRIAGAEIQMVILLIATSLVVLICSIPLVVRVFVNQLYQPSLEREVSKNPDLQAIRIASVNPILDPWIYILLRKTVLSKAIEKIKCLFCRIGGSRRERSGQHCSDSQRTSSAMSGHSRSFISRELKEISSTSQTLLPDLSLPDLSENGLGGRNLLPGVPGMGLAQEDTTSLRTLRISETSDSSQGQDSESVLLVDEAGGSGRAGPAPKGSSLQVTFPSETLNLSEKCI
Description: as §4, §5, §6, §7

hEP4 = molecular target: T5, hEP4 (Homo sapiens, UniProt P35408); assay: Radioligand binding, [3H]PGE2, HEK-293 cells stably expressing EP4 receptors; conditions: Table 1, second part; read-out: hEP4 Ki
T5 construct: expressed in transfected cells; host or cells: HEK-293 cells (plasma membrane fraction)
T5 sequence (P35408 whole entry): as above
Description: as §1, §2
as §3, with “Binding studies employing EP1, EP2, EP4 and FP receptors were performed in duplicate in at least three separate experiments.” left out

T1 sequence (P43116 whole entry): as the sequence (P43116 whole entry) above

- EC50 (hEP2 [1]): 41 nM
- Ki (hEP2 [2]): 291 nM
- EC50 (hEP2/Gqs5): 192 nM
- EC50 (hIP): 2690 nM
- EC50 (hEP4/Gqs5): > 10000 nM
- Ki (hEP4): 14700 nM
SMILES: O=Cc1cccc(OC[C@@H]2[C@@H](C/C=C\CCCC(=O)O)[C@H](Cl)C[C@H]2O)c1 [Example 48, (Z)-7-[(1R,2S,3R,5R)-5-Chloro-2-(3-formyl-phenoxymethyl)-3-hydroxy-cyclopentyl]-hept-5-enoic acid]
